Data published in US20150105252A1, “SUBSTITUTED PYRAZOLES AS HERBICIDES” (E I DU PONT DE NEMOURS AND COMPANY, priority 2013, published 2015).

Key:
[1] = system: velvetleaf; test: Test A postemergence; type: in vivo, Abutilon theophrasti
How it was run: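 Ratings express plant response from 0 (no effect) to 100 (complete control), judged visually against untreated controls after approximately 10 days in the greenhouse. Preemergence applications were made as directed soil sprays onto seeded loam–sand mix, and postemergence applications onto 2–10 cm plants at one- to two-leaf stage.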

[2] = system: blackgrass; test: Test C preemergence; type: in vivo, Alopecurus myosuroides; conditions: preemergence; for Plant response rating, Blackgrass: 125 g ai/ha, scale 0 to 100, 0 = no effect, 100 = complete control
How it was run: (§1)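 Scores of 0 (no effect) to 100 (complete control) were assigned by eye after 13–15 days, comparing treated pots with controls. Soil-applied (preemergence) treatments went onto seeds in loam and sand; foliar (postemergence) treatments onto 1- to 4-leaf plants in peat medium.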

[3] = system: wheat; test: Test C preemergence; type: in vivo, Triticum aestivum; conditions: preemergence; for Plant response rating, Wheat: 125 g ai/ha, scale 0 to 100, 0 = no effect, 100 = complete control
How it was run: as §1

[4] = system: galium; test: Test C preemergence; type: in vivo, Galium aparine; conditions: preemergence; for Plant response rating, Galium: 125 g ai/ha, scale 0 to 100, 0 = no effect, 100 = complete control
How it was run: as §1

[5] = system: corn; test: Test C preemergence; type: in vivo, Zea mays; conditions: preemergence; for Plant response rating, Corn: 125 g ai/ha, scale 0 to 100, 0 = no effect, 100 = complete control
How it was run: as §1

[6] = system: pigweed; test: Test C preemergence; type: in vivo, Amaranthus retroflexus; conditions: preemergence; for Plant response rating, Pigweed: 125 g ai/ha, scale 0 to 100, 0 = no effect, 100 = complete control
How it was run: as §1

[7] = system: ragweed; test: Test C preemergence; type: in vivo, Ambrosia elation; conditions: preemergence; for Plant response rating, Ragweed: 125 g ai/ha, scale 0 to 100, 0 = no effect, 100 = complete control
How it was run: as §1

[8] = system: soybean; test: Test C preemergence; type: in vivo, Glycine max; conditions: preemergence; for Plant response rating, Soybean: 125 g ai/ha, scale 0 to 100, 0 = no effect, 100 = complete control
How it was run: as §1

[9] = system: oilseed rape; test: Test C preemergence; type: in vivo, Brassica napus; conditions: preemergence; for Plant response rating, Oilseed Rape: 125 g ai/ha, scale 0 to 100, 0 = no effect, 100 = complete control
How it was run: as §1

[10] = system: waterhemp; test: Test C preemergence; type: in vivo, Amaranthus rudis; conditions: preemergence; for Plant response rating, Waterhemp: 125 g ai/ha, scale 0 to 100, 0 = no effect, 100 = complete control
How it was run: as §1

[11] = system: wheat; test: Test C postemergence; type: in vivo, Triticum aestivum; conditions: postemergence; for Plant response rating, Wheat: 250 g ai/ha, scale 0 to 100 (0 no effect, 100 complete control); for Wheat plant response rating: scale 0 to 100
How it was run: as §1

[12] = system: foxtail, giant; test: Test C postemergence; type: in vivo, Setaria faberii; conditions: for Plant response rating (scale of 0 to 100 where 0 is no effect and 100 is complete control), Foxtail, Giant: Postemergence, 31 g ai/ha, visually evaluated after 13 to 15 days; for Foxtail, Giant plant response rating / Plant response rating, Foxtail, Giant: postemergence; for Foxtail, Giant plant response rating: 62 g ai/ha, scale 0 to 100
How it was run: as §1

[13] = system: johnsongrass; test: Test C postemergence; type: in vivo, Sorghum halepense; conditions: for Plant response rating (scale of 0 to 100 where 0 is no effect and 100 is complete control), Johnsongrass: Postemergence, 31 g ai/ha, visually evaluated after 13 to 15 days; for Johnsongrass plant response rating / Plant response rating, Johnsongrass: postemergence; for Johnsongrass plant response rating: 62 g ai/ha, scale 0 to 100
How it was run: as §1

[14] = system: lambsquarters; test: Test C postemergence; type: in vivo, Chenopodium album; conditions: for Plant response rating (scale of 0 to 100 where 0 is no effect and 100 is complete control), Lambsquarters: Postemergence, 31 g ai/ha, visually evaluated after 13 to 15 days; for Lambsquarters plant response rating / Plant response rating, Lambsquarters: postemergence; for Lambsquarters plant response rating: 62 g ai/ha, scale 0 to 100
How it was run: as §1

[15] = system: chickweed; test: Test C postemergence; type: in vivo, Stellaria media; conditions: for Plant response rating (scale of 0 to 100 where 0 is no effect and 100 is complete control), Chickweed: Postemergence, 31 g ai/ha, visually evaluated after 13 to 15 days; for Chickweed plant response rating / Plant response rating, Chickweed: postemergence; for Chickweed plant response rating: 62 g ai/ha, scale 0 to 100
How it was run: as §1

[16] = Postemergence, 500 g ai/ha, 0 to 100 scale (0 no effect, 100 complete control)
[17] = postemergence, 125 g ai/ha, about 10 days, visual rating on 0 to 100 scale (0 no effect, 100 complete control)
[18] = 31 g ai/ha, visual rating, scale 0 to 100 (0 no effect, 100 complete control), 13 to 15 days
[19] = 62 g ai/ha, scale 0 to 100 (0 no effect, 100 complete control), 13 to 15 days
[20] = 250 g ai/ha, scale 0 to 100, 0 is no effect, 100 is complete control
[21] = 250 g ai/ha, scale 0 to 100 (0 no effect, 100 complete control)
[22] = 125 g ai/ha, scale 0 to 100, 0 no effect, 100 complete control

## CCOc1cc(C(=O)NOC(C)C)nn1Cc1ccnc(C(F)(F)F)c1 [Compound 153]
[1]; [16]
  Velvetleaf plant response rating: 100
[1]; [17]
  Velvetleaf plant response rating: 70
[2]; [18]
  Blackgrass plant response rating: 80
[2]; [19]
  Blackgrass plant response rating: 90
[2]; 13 to 15 days
  Plant response rating, Blackgrass: 90
[2]; [20]
  Blackgrass plant response rating: 90
[3]; [18]
  Wheat plant response rating: 15
[3]; [19]
  Wheat plant response rating: 85
[3]; 13 to 15 days
  Plant response rating, Wheat: 90
[3]; [20]
  Wheat plant response rating: 90
[4]; [18]
  Galium plant response rating: 30
[4]; [19]
  Galium plant response rating: 100
[4]; 13 to 15 days
  Plant response rating, Galium: 100
[4]; [20]
  Galium plant response rating: 100
[5]; [18]
  Corn plant response rating: 10
[5]; [19]
  Corn plant response rating: 50
[5]; 13 to 15 days
  Plant response rating, Corn: 95
[5]; [20]
  Corn plant response rating: 98
[6]; [18]
  Pigweed plant response rating: 20
[6]; [19]
  Pigweed plant response rating: 95
[6]; 13 to 15 days
  Plant response rating, Pigweed: 100
[6]; [20]
  Pigweed plant response rating: 98
[7]; [18]
  Ragweed plant response rating: 50
[7]; [19]
  Ragweed plant response rating: 95
[7]; 13 to 15 days
  Plant response rating, Ragweed: 98
[7]; [20]
  Ragweed plant response rating: 98
[8]; [18]
  Soybean plant response rating: 5
[8]; [19]
  Soybean plant response rating: 10
[8]; 13 to 15 days
  Plant response rating, Soybean: 45
[8]; [20]
  Soybean plant response rating: 80
[9]; [18]
  Oilseed Rape plant response rating: 60
[9]; [19]
  Oilseed Rape plant response rating: 95
[9]; 13 to 15 days
  Plant response rating, Oilseed Rape: 95
[9]; [20]
  Oilseed Rape plant response rating: 95
[10]; [18]
  Waterhemp plant response rating: 60
[10]; [19]
  Waterhemp plant response rating: 100
[10]; 13 to 15 days
  Plant response rating, Waterhemp: 100
[10]; [20]
  Waterhemp plant response rating: 100
[11]
  Plant response rating, Wheat: 15
  Wheat plant response rating: 0
[12]
  Plant response rating (scale of 0 to 100 where 0 is no effect and 100 is complete control), Foxtail, Giant: 5
  Foxtail, Giant plant response rating: 5
[12]; [21]
  Plant response rating, Foxtail, Giant: 65
[12]; [22]
  Plant response rating, Foxtail, Giant: 10
[13]
  Plant response rating (scale of 0 to 100 where 0 is no effect and 100 is complete control), Johnsongrass: 0
  Johnsongrass plant response rating: 5
[13]; [21]
  Plant response rating, Johnsongrass: 5
[13]; [22]
  Plant response rating, Johnsongrass: 0
[14]
  Plant response rating (scale of 0 to 100 where 0 is no effect and 100 is complete control), Lambsquarters: 65
  Lambsquarters plant response rating: 55
[14]; [21]
  Plant response rating, Lambsquarters: 85
[14]; [22]
  Plant response rating, Lambsquarters: 75
[15]
  Plant response rating (scale of 0 to 100 where 0 is no effect and 100 is complete control), Chickweed: 50
  Chickweed plant response rating: 70
[15]; [21]
  Plant response rating, Chickweed: 80
[15]; [22]
  Plant response rating, Chickweed: 70

## CCNC(=O)c1cc(CC)n(Cc2cc(C(F)(F)F)nn2C)n1 [Compound 154]
[1]; [16]
  Velvetleaf plant response rating: 100
[1]; [17]
  Velvetleaf plant response rating: 80
[2]; [18]
  Blackgrass plant response rating: 75
[2]; [19]
  Blackgrass plant response rating: 90
[2]; 13 to 15 days
  Plant response rating, Blackgrass: 90
[2]; [20]
  Blackgrass plant response rating: 90
[3]; [18]
  Wheat plant response rating: 0
[3]; [19]
  Wheat plant response rating: 5
[3]; 13 to 15 days
  Plant response rating, Wheat: 50
[3]; [20]
  Wheat plant response rating: 90
[4]; [18]
  Galium plant response rating: 90
[4]; [19]
  Galium plant response rating: 100
[4]; 13 to 15 days
  Plant response rating, Galium: 100
[4]; [20]
  Galium plant response rating: 100
[5]; [18]
  Corn plant response rating: 0
[5]; [19]
  Corn plant response rating: 5
[5]; 13 to 15 days
  Plant response rating, Corn: 40
[5]; [20]
  Corn plant response rating: 95
[6]; [18]
  Pigweed plant response rating: 85
[6]; [19]
  Pigweed plant response rating: 98
[6]; 13 to 15 days
  Plant response rating, Pigweed: 100
[6]; [20]
  Pigweed plant response rating: 100
[7]; [18]
  Ragweed plant response rating: 25
[7]; [19]
  Ragweed plant response rating: 80
[7]; 13 to 15 days
  Plant response rating, Ragweed: 98
[7]; [20]
  Ragweed plant response rating: 98
[8]; [18]
  Soybean plant response rating: 35
[8]; [19]
  Soybean plant response rating: 80
[8]; 13 to 15 days
  Plant response rating, Soybean: 95
[8]; [20]
  Soybean plant response rating: 98
[9]; [18]
  Oilseed Rape plant response rating: 85
[9]; [19]
  Oilseed Rape plant response rating: 95
[9]; 13 to 15 days
  Plant response rating, Oilseed Rape: 95
[9]; [20]
  Oilseed Rape plant response rating: 95
[10]; [18]
  Waterhemp plant response rating: 85
[10]; [19]
  Waterhemp plant response rating: 100
[10]; 13 to 15 days
  Plant response rating, Waterhemp: 100
[10]; [20]
  Waterhemp plant response rating: 100
[11]
  Plant response rating, Wheat: 10
  Wheat plant response rating: 5
[12]
  Plant response rating (scale of 0 to 100 where 0 is no effect and 100 is complete control), Foxtail, Giant: 5
  Foxtail, Giant plant response rating: 5
[12]; [21]
  Plant response rating, Foxtail, Giant: 10
[12]; [22]
  Plant response rating, Foxtail, Giant: 5
[13]
  Plant response rating (scale of 0 to 100 where 0 is no effect and 100 is complete control), Johnsongrass: 0
  Johnsongrass plant response rating: 0
[13]; [21]
  Plant response rating, Johnsongrass: 5
[13]; [22]
  Plant response rating, Johnsongrass: 5
[14]
  Plant response rating (scale of 0 to 100 where 0 is no effect and 100 is complete control), Lambsquarters: 40
  Lambsquarters plant response rating: 50
[14]; [21]
  Plant response rating, Lambsquarters: 75
[14]; [22]
  Plant response rating, Lambsquarters: 75
[15]
  Plant response rating (scale of 0 to 100 where 0 is no effect and 100 is complete control), Chickweed: 60
  Chickweed plant response rating: 70
[15]; [21]
  Plant response rating, Chickweed: 90
[15]; [22]
  Plant response rating, Chickweed: 60
